Results taken from US20210163929A1, “METHODS AND COMPOSITIONS FOR THE TREATMENT OF HEPATIC AND METABOLIC DISEASES” (The Regents of the University of California, priority 2018, published 2021).
Entries after “also recorded” stand apart in the source; their conditions may differ.

How the values were obtained:
[1] = system: FGF21 signaling in Huh7 cells; test: Huh7 cells infected/transfected with miR-22 or miR-22 inhibitors, mRNA and Western blot; format: cell-based, human
Text: However, miR-22 was induced in the livers and adipose tissues of WD-fed mice (FIG. 15B). Similarly, using human liver biopsy specimens, miR-22 levels were positively associated with hepatic fat content and inversely correlated with the mRNA levels of PGC-1α, a key regulator of mitochondrial biogenesis (FIG. 15C). […] To study the downstream effects of miR-22, miR-22 mimics (ID: MIMAT0000077, […] (SEQ ID NO:2), Applied Biological Materials Inc.) were used to transfect human liver Huh7 cells.
(§1) Cell culture: Huh7 cells were obtained from Japanese Collection of Research Bioresources and maintained in DMEM with 10% FBS. Cells were treated with DMSO, OCA (5 or 20 μM; Apexbio Technology LLC, Houston, Tex., USA) in serum-free media for indicated time. Cells were plated (1×10^6 cells per 60-mm dish, 2×10^5 cells per 6-well plates, and 1×10^5 cells per 24-well plates) overnight prior to treatment or infection.
(§2) Constructs and luciferase reporter assay: The 3′ untranslated region (3′-UTR) of the FGFR1 gene containing the putative binding site for miR-22 and the entire 3′-UTR of the FGF21 gene (105 bp) was cloned into the psiCHECK2 vector (Promega, Madison, Wis., USA) using NotI and XhoI. For cell infection, adenovirus (negative control), adenoviral-delivered miR-22 (miR-22), or adenoviral-miR-22 inhibitors (SEQ ID NO:1; Applied Biological Materials Inc., Richmond, BC) were used. Forty-eight h post infection, cells were transfected with psiCHECK2-FGR1-3′UTR or psiCHECK2-FGF21 3′UTR using Lipofectamine 2000 (Thermo Fisher Scientific). Twenty-four h later, cells were harvested for firefly and Renilla luciferase assay using the Dual-luciferase Reporter system (Promega). Renilla luciferase activity was standardized to firefly luciferase activity.
(§3) Western blot: Western blot was performed as described previously (26). Antibodies used were anti-FGFR1, FGF21, FASN, phosphor (P)-AMPK, total (T)-AMPK, phosphor (P)-ERK1/2, and total (T)-ERK1/2 (Cell Signaling Technology, Beverly, Mass., USA), β-ACTIN (MilliporeSigma), CD36 (Bioss Antibodies Inc., Woburn, Mass., USA), CYCLIN A2, PGC1α (Novus Biologicals, LLC, Littleton, Colo., USA), and PPARα (Santa Cruz Biotechnology, Santa Cruz, Calif., USA).

[2] = system: 3′UTR of FGFR1; test: Luciferase reporter assay, psiCHECK2-FGFR1 3′UTR in Huh7 cells; format: cell-based, human; conditions: 48 h infection then reporter transfection
Text: as §2

[3] = system: 3′UTR of FGF21; test: Luciferase reporter assay, psiCHECK2-FGF21 3′UTR in Huh7 cells; format: cell-based, human; conditions: 48 h infection then reporter transfection
Text: as §2

[4] = system: PPREs in the regulatory region of FGF21; test: ChIP-qPCR of PPARα and PGC1α occupancy in Huh7 cells; format: cell-based, human; conditions: miR-22 overexpression
Experimental: Chromatin immunoprecipitation (ChIP)-qPCR: ChIP-qPCR was performed based on a previous publication (27). Briefly, chromatin lysate was precleared before incubation with anti-PGC1α (Novus Biologicals) and anti-PPARα (Santa Cruz Biotechnology). IgG (Santa Cruz Biotechnology) and RNA Polymerase II antibody (MilliporeSigma) was used as negative and positive control, respectively. Samples were incubated with Dynase beads at 4° C. overnight followed by de-crosslinking and purification. DNA fragments generated served as templates for qPCR using Power SYBR Green PCR Master Mix.

[5] = system: HDAC1, HDAC4 and CYCLIN A2 in Huh7 and HCT116 cells; test: Deacetylase protein levels after miR-22 in Huh7 and HCT116 cells; format: cell-based, human
[6] = system: Western diet-induced steatosis in C57BL/6 mice; test: Pilot study in Western diet-fed mice, tail vein adenoviral miR-22 mimics or inhibitors; format: in vivo, mouse
Experimental: Wild type C57BL/6 mice were fed with a high fat and high sucrose (21.2% fat, 34% sucrose, and 0.2% cholesterol) Western diet (WD) since weaning (3 weeks). When mice were 2.5 months old, they received adenoviral-delivery of miR-22 mimics or miR-22 inhibitors (i.e., SEQ ID NO:1) via tail vein injection (1×10^9 PFU/100 μl saline, 3 doses in 10 days). […] In addition, hepatic Pgc1α mRNA level was reduced by miR-22 mimics, but increased by miR-22 inhibitors (FIG. 10).
To further analyze the role miR-22 in regulating hepatic metabolism, we have done pilot studies to test the effect of miR-22 in non-alcoholic and alcoholic steatohepatitis. Steatosis was induced by feeding mice with a WD that has high fat and high sucrose content since weaning (3-weeks old). After 2 months of differential diet feeding, mild steatosis was found in WD-fed mice. Then, those WD-fed mice received adenoviral-control, adenoviral-delivered miR-22 mimics, or miR-22 inhibitors (i.e., SEQ ID NO:1) via tail vein injection (1×10^9 pfu/200 μl, 3 doses, weekly) while continuing a WD. […] These exciting findings indicate that forced miR-22 expression in WD-fed mice potentially can be a novel NASH model.

[7] = system: alcohol-induced steatosis in C57BL/6 mice; test: Alcohol-induced steatosis in mice treated with adenoviral miR-22 inhibitors; format: in vivo, mouse; conditions: FIG. 29E
Text: We performed another pilot experiment to test the effect of miR-22 inhibitors in reducing alcohol-induced steatosis. The same method described above for FIG. 2C was used to induce steatosis followed by miR-22 inhibitor treatment through tail vein injection.
Additionally, alcohol was used to induce fatty liver. Mice were on Liber DeCarli liquid diet supplemented with 5% alcohol for 3 weeks followed by delivery of adenoviral-control and adenoviral-miR-22 inhibitors using the same methods described above. During the interventions, mice continued having alcohol-supplemented liquid diet.
3-month old WT male mice were fed with Liber DeCarli diet with 5% alcohol supplementation for 3 weeks followed by adenovirus delivery of miR-22 inhibitor (1×10^9PFU) through tail vein injection (3 times in 10 days). The empty adenovirus was used as a negative control. The mice were killed 1 day after the last injection. Steatosis scored was graded on a scale of a scale of 0 (<5%), 1 (5-33%), 2 (34-66%), and 3 (>66%). […]
Biochemical analysis: Hepatic triglyceride and cholesterol (BioAssay Systems, Hayward, Calif., USA) levels and serum lipopolysaccharide (LPS) (Thermo Fisher Scientific), alanine transaminase (ALT) (Pointe Scientific), and alkaline phosphatase (ALP) (Pointe Scientific) levels were quantified according to the manufacturer's instructions.

[8] = system: mice after 2/3 liver resection; test: 2/3 liver resection in mice given miR-22 inhibitors or mimics; format: in vivo, mouse; conditions: compared to other groups
Experimental: The data presented in FIGS. 38 and 39 further support the usefulness of miR-22 inhibition. For the experiments used to generate the data in FIG. 38, mice received miR-22 inhibitors or miR-22 mimics via tail vein injection 3 days prior to 2/3 liver resection (1×10^9 pfu in 100 μL saline, one injection per day). Mice were killed on day 0 (immediately after liver resection) or 2 days later.

[9] = system: miR-22 in HCT116 cells; test: miR-22 induction in HCT116 cells treated with bile acids or HDAC inhibitors; format: cell-based, human; conditions: CDCA 150 μM
Experimental: A time course study in which HCT116 cells were treated by 150 μM CDCA for indicated times. […] Data are presented as mean+/−S.D. * denotes p<0.05.
Data are shown as mean+/−S.D. * p<0.05; ** p<0.01; ***p<0.001.
OCA is a semi-synthetic bile acid, which as the structure of 6α-ethyl-chenodeoxycholic acid.

[10] = system: FGF21 signaling and miR-22 in Huh7 cells; test: mRNA and protein levels in Huh7 cells treated with OCA/INT-747, CDCA, butyrate or RA plus butyrate; format: cell-based, human; conditions: CDCA 150 μM
Experimental: as §1
Gene expression quantification: Total RNA was extracted using TRIzol Reagent (Thermo Fisher Scientific, Waltham, Mass., USA), and cDNA was generated using High Capacity RNA-to-cDNA Kit (Applied Biosysterms, Carlsbad, Calif., USA). qRT-PCR was performed on ABI 7900HT Fast Real-time PCR system using Power SYBR® Green PCR Master Mix (Applied Biosysterms).
as §3

[11] = system: miR-22 in HCT116 cells; test: miR-22 induction in HCT116 cells treated with bile acids or HDAC inhibitors; format: cell-based, human; conditions: 24 hours, CDCA 50, 100, 150 μM, OCA 25 and 50 μM
[12] = system: miR-22; conditions: published data; cited from earlier work
[13] = WD-fed C57BL/6 mice 2.5 months old, tail vein 1×10^9 PFU/100 μl, 3 doses in 10 days

| Molecule | expression of βKlotho [1] | total AMPK [1] | PPARα and PGC1α protein levels ([1]; 48 h post infection) | AMPK and ERK1/2 activation (P-AMPK, P-ERK1/2) ([1]; miR-22 overexpression) | FGF21 and FGFR1 (SIRT1, p-AMPK) levels ([1]; miR-22 overexpression) | FGF21 and FGFR1 (SIRT1, p-AMPK) levels ([1]; miR-22 overexpression, listed as miR-22) | luciferase activity driven by FGFR1 3′UTR [2] | luciferase activity driven by FGF21 3′UTR [3] | occupancy of PPARα and PGC1α in the two PPREs of FGF21 [4] | protein level of HDAC1, HDAC4 and CYCLIN A2 [5] | hepatic Pgc1α mRNA level [6, 13] | hepatic lymphocyte infiltration [6, 13] | severity of steatosis / hepatic fat content [6, 13] | liver histology (hepatic fat content, lymphocyte infiltration) ([6]; WD-fed mice after 2 months of diet, tail vein 1×10^9 pfu/200 μl, 3 doses, weekly) | hepatic gene expression (PGC1α, CPT1, SREBP-1c, FASN, TNFα) [7] | liver-to-body weight ratio and fat-to-body weight ratio [8] | FGF21 and miR-22 levels [9] | FGF21 and miR-22 levels [10] | miR-22 level [11] | miR-22 induction [12] |
| --- | --- | --- | --- | --- | --- | --- | --- | --- | --- | --- | --- | --- | --- | --- | --- | --- | --- | --- | --- | --- |
| miR-22 mimics: miR-22 mimics (ID: MIMAT0000077, AAGCUGCCAGUUGAAGAACUGU, SEQ ID NO:2), transfected or adenoviral-delivered (chemistry not given here; listed as Homo sapiens) | did not affect the expression of βKlotho | had no effect on total AMPK | reduced PPARα and PGC1α | AMPK and ERK1/2 deactivation | reduced the protein level of FGF21, FGFR1 and p-AMPK; also recorded: reduced the protein level of FGF21, FGFR1, and SIRT1 | reduced FGF21 and FGFR1 at both mRNA and protein levels | decreased the luciferase activity | neither miR-22 nor miR-22 inhibitors changed the luciferase activity | substantially reduced | reduced the protein level of HDAC1 and HDAC4 as well as CYCLIN A2 | reduced | induced hepatic lymphocyte infiltration | increased the severity of steatosis | increased hepatic fat content and lymphocyte infiltration | reduced PGC1α and CPT1, but increased SREBP-1c, FASN, and TNFα | substantially higher | – | – | – | – |
| C[C@H](CCC(=O)O)[C@H]1CC[C@H]2[C@@H]3[C@H](O)C[C@@H]4C[C@H](O)CC[C@]4(C)[C@H]3CC[C@]12C [CDCA, chenodeoxycholic acid] | – | – | – | – | – | – | – | – | – | – | – | – | – | – | – | – | induced FGF21 and miR-22 levels | induced FGF21 and miR-22 levels | induced miR-22 | induced |
